For one molecule, inhibition, IC50 and Activity results are on record in ChEMBL document CHEMBL3352066, “Pharmacological characterization of actin-binding (-)-doliculide” (Bioorg Med Chem, 2014).

The target in test [1] is Actin, cytoplasmic 1 (Homo sapiens) (UniProt P60709). In words: Inhibition of actin organization in human MCF7 cells transfected with GFP-tagged human beta-actin assessed as reduction of g-actin monomers at 100 nM after 30 mins by FRAP method. In kind it is cell-based.
For test [2] the target is unchanged. In words: Inhibition of actin organization in human MCF7 cells transfected with GFP-tagged human beta-actin assessed as formation of actin aggregates at 300 nM after 30 mins by FRAP method. In kind it is cell-based.
The target is the same in test [3]. Put plainly: Inhibition of actin organization in human MCF7 cells transfected with GFP-tagged human beta-actin assessed as reduction of actin stress fibers at 100 nM after 24 hrs by FRAP method. In kind it is cell-based.
Test [4] has the same target. Put plainly: Inhibition of actin organization in human MDA-MB-231 cells transfected with GFP-tagged human beta-actin assessed as reduction of actin stress fibers at 100 nM after 24 hrs by FRAP method. In kind it is cell-based.
For test [5] the target is unchanged. In words: Inhibition of actin organization in human MCF7 cells transfected with GFP-tagged human beta-actin assessed as formation of actin aggregates at 300 to 500 nM after 24 hrs by FRAP method. In kind it is cell-based.
The target is the same in test [6]. In words: Inhibition of actin organization in human MDA-MB-231 cells transfected with GFP-tagged human beta-actin assessed as formation of actin aggregates at 300 to 500 nM after 24 hrs by FRAP method. In kind it is cell-based.
Test [7] deals with MCF7. Put plainly: Antiproliferative activity against human MCF7 cells after 72 hrs by CellTiter-Blue assay. In kind it is functional, cell-based.
Test [8] relates to MDA-MB-231. Put plainly: Antiproliferative activity against human MDA-MB-231 cells after 72 hrs by CellTiter-Blue assay. In kind it is functional, cell-based. On the technique in general: Alamar Blue is a resazurin reagent that responds to reducing activity.
In test [9] the test system is MDA-MB-231. Put plainly: Antimigratory activity against human MDA-MB-231 cells up to 10 hrs. In kind it is functional, cell-based.
Test [10] concerns MCF7. Put plainly: Induction of apoptosis in human MCF7 cells after 24 hrs using propidium iodide by flow cytometry. In kind it is functional, cell-based. A general note: A flow cytometer gives signals particle by particle.
For test [11], the system named is MDA-MB-231. In words: Induction of apoptosis in human MDA-MB-231 cells after 24 hrs using propidium iodide by flow cytometry. In kind it is functional, cell-based.
The subject of test [12] is MCF7. Put plainly: Induction of apoptosis in human MCF7 cells assessed as reduction of pro-caspase9 level after 48 hrs by Western blot analysis. In kind it is functional, cell-based. For orientation: In western blotting, separated proteins are transferred to a membrane and probed.
In test [13] the test system is MDA-MB-231. Put plainly: Induction of apoptosis in human MDA-MB-231 cells assessed as reduction of pro-caspase9 level after 48 hrs by Western blot analysis. In kind it is functional, cell-based.
The test system of test [14] is MCF7. In words: Induction of apoptosis in human MCF7 cells assessed as PARP cleavage after 48 hrs by Western blot analysis. In kind it is functional, cell-based.
Test [15] deals with MDA-MB-231. Put plainly: Induction of apoptosis in human MDA-MB-231 cells assessed as PARP cleavage after 48 hrs by Western blot analysis. In kind it is functional, cell-based.

Activity calls are given as the source filed them. No cut-off for these calls is given here.

`CC(C)[C@@H]1C[C@H](O)[C@H](C)C[C@H](C)C[C@H](C)C(=O)NCC(=O)N(C)[C@H](Cc2ccc(O)c(I)c2)C(=O)O1`: the inhibition result in test [1], in [2], in test [3], in test [4], in test [5] and in test [6] was “Active” throughout. Also, the inhibition entry with MCF7 [7], in the test with MDA-MB-231 [8] and in the test on MDA-MB-231 [9] was “Dose-dependent effect” each time. For the same molecule, the IC50 with MCF7 [7] (MCF7, 72 h) was found to be 93 nM; in the test with MDA-MB-231 [8] (MDA-MB-231, 72 h) it was 77 nM. In addition, the Activity result with MCF7 [10], in the test on MDA-MB-231 [11], with MCF7 [12] and in the test with MDA-MB-231 [13] was “Dose-dependent effect” each time. Further, the outcome in the test on MCF7 [14] and in the test on MDA-MB-231 [15] was Active.

A word on the IC50: it is the concentration at which inhibition is half-maximal.
